Data as given in US3959256A.
Values after ≈ are worked out from the molar mass of the structure shown. Read-outs that look alike come from different tables or passages of the source.

Tests used:
[1] = tested on: Diplococcus pneumoniae Type III; test: Minimum inhibitory concentration, standard serial dilution method; assay type: cell-based; details: Streptococcus pneumoniae, Brain Heart Infusion broth, 37°C, 24 hours, read-out: Minimum Inhibitory Concentrations
Protocol: (§1) The minimum inhibitory concentrations of these compounds to various microorganisms were determined according to a standard serial dilution method using Brain Heart Infusion broth as the incubation medium at 37°C, the estimation of the growth of the microorganisms being effected after 24 hours' incubation.

[2] = tested on: Staphylococcus aureus 209P; test: as above; assay type: cell-based; details: Brain Heart Infusion broth, 37°C, 24 hours, read-out: Minimum Inhibitory Concentrations
Protocol: as §1

[3] = tested on: Streptococcus hemolyticus D-90; test: as above; assay type: cell-based; details: Streptococcus pyogenes, D90, Brain Heart Infusion broth, 37°C, 24 hours, read-out: Minimum Inhibitory Concentrations
Protocol: as §1

[4] = tested on: Staphylococcus aureus Terajima; test: as above; assay type: cell-based; details: read-out: Minimum Inhibitory Concentrations
[5] = tested on: Staphylococcus aureus Smith; test: as above; assay type: cell-based; details: read-out: Minimum Inhibitory Concentrations
[6] = tested on: Staphylococcus albus 1200A; test: as above; assay type: cell-based; details: read-out: Minimum Inhibitory Concentrations
[7] = tested on: Streptococcus faecalis ATCC 8043; test: as above; assay type: cell-based; details: Enterococcus faecalis, read-out: Minimum Inhibitory Concentrations
[8] = tested on: Streptococcus hemolyticus Cook; test: as above; assay type: cell-based; details: Streptococcus pyogenes, read-out: Minimum Inhibitory Concentrations
[9] = tested on: Streptococcus pyogenes D-58; test: as above; assay type: cell-based; details: read-out: Minimum Inhibitory Concentrations
[10] = tested on: Diplococcus pneumoniae Type I; test: as above; assay type: cell-based; details: Streptococcus pneumoniae, read-out: Minimum Inhibitory Concentrations
[11] = tested on: Bacillus subtilis PCI 219; test: as above; assay type: cell-based; details: read-out: Minimum Inhibitory Concentrations
[12] = tested on: Bacillus subtilis ATCC 6633; test: as above; assay type: cell-based; details: read-out: Minimum Inhibitory Concentrations
[13] = tested on: Bacillus anthracis No.119; test: microbe, parasite or virus in culture; assay type: cell-based; details: NO.119, 24 h, read-out: Minimum Inhibitory Concentrations
[14] = tested on: Corynebacterium diphtheriae Type gravis; test: Minimum inhibitory concentration, standard serial dilution method; assay type: cell-based; details: read-out: Minimum Inhibitory Concentrations
[15] = tested on: Corynebacterium diphtheriae Type intermedius; test: as above; assay type: cell-based; details: read-out: Minimum Inhibitory Concentrations
Sarcina lutea = test: as above; assay type: cell-based; details: Micrococcus luteus, read-out: Minimum Inhibitory Concentrations
mice = test: Acute toxicity in mice, intraperitoneal; details: 3,000 mg/kg intraperitoneally; one week after dosing; 3 mice per group
Staphylococcus aureus = test: Curative effect in therapeutic treatment of Staphylococcus aureus infections in mice; details: oral, immediately after intraperitoneal inoculation, 7th day, 10 mice per group
[16] = Staphylococcus aureus Terajima, Brain Heart Infusion broth, 37°C, 24 hours
[17] = Streptococcus hemolyticus Cook, Brain Heart Infusion broth, 37°C, 24 hours
[18] = Diplococcus pneumoniae Type I, Brain Heart Infusion broth, 37°C, 24 hours
[19] = PCI219, Bacillus subtilis PCI 219, Brain Heart Infusion broth, 37°C, 24 hours
[20] = ATCC6633, Bacillus subtilis ATCC 6633, Brain Heart Infusion broth, 37°C, 24 hours
[21] = Corynebacterium diphtheriae Type gravis, Brain Heart Infusion broth, 37°C, 24 hours
[22] = Corynebacterium diphtheriae Type intermedius, Brain Heart Infusion broth, 37°C, 24 hours
[23] = Sarcina lutea, Brain Heart Infusion broth, 37°C, 24 hours
[24] = Streptococcus pyogenes, D58, 24 h
[25] = Corynebacterium diphtheriae, 24 h

Structure (SMILES): CCC(=O)OC1C=CC=CCC(C)OC(=O)CC(OC(=O)CC)C(OC)C(OC2OC(C)C(OC3CC(C)(OCOC(C)=O)C(OC(=O)CC)C(C)O3)C(N(C)C)C2O)C(CC=O)CC1C (stereo not shown) [9-O-propionyl-3"-O-acetoxymethyl-SF-837, 9-O-propionyl-3"-O-acetoxymethyl-SF-837 substance]
- MIC [1]: 1.56 µg/mL (≈ 1.66 µM)
- MIC [2]: 1.56 µg/mL (≈ 1.66 µM)
- MIC [3]: 1.56 µg/mL (≈ 1.66 µM)
- MIC [4, 16]: 3.13 µg/mL (≈ 3.32 µM)
- MIC ([5]; Staphylococcus aureus Smith, Brain Heart Infusion broth, 37°C, 24 hours): 3.13 µg/mL (≈ 3.32 µM)
- MIC ([6]; Staphylococcus, 1200A, 24 h): 1.56 µg/mL (≈ 1.66 µM)
- MIC ([7]; ATCC8043, 24 h): 1.56 µg/mL (≈ 1.66 µM)
- MIC [8, 17]: 0.19 µg/mL (≈ 0.202 µM)
- MIC ([9]; D58, Streptococcus pyogenes D-58, Brain Heart Infusion broth, 37°C, 24 hours): 3.13 µg/mL (≈ 3.32 µM)
- MIC [10, 18]: 0.19 µg/mL (≈ 0.202 µM)
- MIC [11, 19]: 0.78 µg/mL (≈ 0.828 µM)
- MIC [12, 20]: 0.78 µg/mL (≈ 0.828 µM)
- MIC [13]: 1.56 µg/mL (≈ 1.66 µM)
- MIC [14, 21]: 0.19 µg/mL (≈ 0.202 µM)
- MIC [15, 22]: 0.19 µg/mL (≈ 0.202 µM)
- MIC (Sarcina lutea; [23]): 0.19 µg/mL (≈ 0.202 µM)
- Rate of the sacrificed mice (average) (mice): 0/3
- Rate of Surviving Mice (in percentage) (Staphylococcus aureus; 100 mg/kg): 33 percentage
- Rate of Surviving Mice (in percentage) (Staphylococcus aureus; 200 mg/kg): 56 percentage
- Rate of Surviving Mice (in percentage) (Staphylococcus aureus; 400 mg/kg): 100 percentage

Structure (SMILES): CCC(=O)OCOC1(C)CC(OC2C(C)OC(OC3C(CC=O)CC(C)C(OC(=O)CC)C=CC=CCC(C)OC(=O)CC(OC(=O)CC)C3OC)C(O)C2N(C)C)OC(C)C1OC(=O)CC (stereo not shown) [9-O-propionyl-3"-O-propionyloxymethyl-SF-837 substance]
- MIC [1]: 1.56 µg/mL (≈ 1.63 µM)
- MIC [2]: 1.56 µg/mL (≈ 1.63 µM)
- MIC [3]: 1.56 µg/mL (≈ 1.63 µM)
- MIC [4, 16]: 3.13 µg/mL (≈ 3.27 µM)
- MIC ([5]; Staphylococcus aureus, 24 h): 1.56 µg/mL (≈ 1.63 µM)
- MIC ([6]; Staphylococcus albus 1200A, Brain Heart Infusion broth, 37°C, 24 hours): 3.13 µg/mL (≈ 3.27 µM)
- MIC ([7]; ATCC8043, Streptococcus faecalis ATCC 8043, Brain Heart Infusion broth, 37°C, 24 hours): 3.13 µg/mL (≈ 3.27 µM)
- MIC ([8]; 24 h): 1.56 µg/mL (≈ 1.63 µM)
- MIC [9, 24]: 1.56 µg/mL (≈ 1.63 µM)
- MIC [10, 18]: 0.19 µg/mL (≈ 0.199 µM)
- MIC [11, 19]: 0.78 µg/mL (≈ 0.816 µM)
- MIC [12, 20]: 0.78 µg/mL (≈ 0.816 µM)
- MIC [13]: 1.56 µg/mL (≈ 1.63 µM)
- MIC [14, 21]: 0.19 µg/mL (≈ 0.199 µM)
- MIC [15, 22]: 0.19 µg/mL (≈ 0.199 µM)
- MIC (Sarcina lutea; [23]): 0.19 µg/mL (≈ 0.199 µM)
- Rate of the sacrificed mice (average) (mice): 0/3
- Rate of Surviving Mice (in percentage) (Staphylococcus aureus; 100 mg/kg): 33 percentage
- Rate of Surviving Mice (in percentage) (Staphylococcus aureus; 200 mg/kg): 56 percentage
- Rate of Surviving Mice (in percentage) (Staphylococcus aureus; 400 mg/kg): 100 percentage

Structure (SMILES): CCC(=O)OCOC1(C)CC(OC2C(C)OC(OC3C(CC=O)CC(C)C(OC(C)=O)C=CC=CCC(C)OC(=O)CC(OC(=O)CC)C3OC)C(O)C2N(C)C)OC(C)C1OC(=O)CC (stereo not shown) [9-O-acetyl-3"-O-propionyloxymethyl-SF-837 substance]
- MIC [1]: 1.56 µg/mL (≈ 1.66 µM)
- MIC [2]: 1.56 µg/mL (≈ 1.66 µM)
- MIC [3]: 1.56 µg/mL (≈ 1.66 µM)
- MIC [4, 16]: 3.13 µg/mL (≈ 3.32 µM)
- MIC ([5]; Staphylococcus aureus, 24 h): 1.56 µg/mL (≈ 1.66 µM)
- MIC ([6]; Staphylococcus, 1200A, 24 h): 1.56 µg/mL (≈ 1.66 µM)
- MIC ([7]; ATCC8043, 24 h): 1.56 µg/mL (≈ 1.66 µM)
- MIC [8, 17]: 0.19 µg/mL (≈ 0.202 µM)
- MIC [9, 24]: 1.56 µg/mL (≈ 1.66 µM)
- MIC [10, 18]: 0.19 µg/mL (≈ 0.202 µM)
- MIC [11, 19]: 0.39 µg/mL (≈ 0.414 µM)
- MIC [12, 20]: 0.78 µg/mL (≈ 0.828 µM)
- MIC [13]: 1.56 µg/mL (≈ 1.66 µM)
- MIC [14, 21]: 0.19 µg/mL (≈ 0.202 µM)
- MIC [15, 22]: 0.19 µg/mL (≈ 0.202 µM)
- MIC (Sarcina lutea; [23]): 0.19 µg/mL (≈ 0.202 µM)
- Rate of the sacrificed mice (average) (mice): 0/3
- Rate of Surviving Mice (in percentage) (Staphylococcus aureus; 100 mg/kg): 67 percentage
- Rate of Surviving Mice (in percentage) (Staphylococcus aureus; 200 mg/kg): 100 percentage
- Rate of Surviving Mice (in percentage) (Staphylococcus aureus; 400 mg/kg): 100 percentage

Structure (SMILES): CCC(=O)OC1CC(=O)OC(C)CC=CC=CC(OC(C)=O)C(C)CC(CC=O)C(OC2OC(C)C(OC3CC(C)(OCOC(C)=O)C(OC(=O)CC)C(C)O3)C(N(C)C)C2O)C1OC (stereo not shown) [9-O-acetyl-3"-O-acetoxymethyl-SF-837, 9-O-acetyl-3"-O-acetoxymethyl-SF-837 substance]
- MIC [1]: 1.56 µg/mL (≈ 1.68 µM)
- MIC [2]: 1.56 µg/mL (≈ 1.68 µM)
- MIC [3]: 1.56 µg/mL (≈ 1.68 µM)
- MIC [4, 16]: 3.13 µg/mL (≈ 3.37 µM)
- MIC ([5]; Staphylococcus aureus, 24 h): 1.56 µg/mL (≈ 1.68 µM)
- MIC ([6]; Staphylococcus, 1200A, 24 h): 1.56 µg/mL (≈ 1.68 µM)
- MIC ([7]; ATCC8043, 24 h): 1.56 µg/mL (≈ 1.68 µM)
- MIC [8, 17]: 0.19 µg/mL (≈ 0.205 µM)
- MIC [9, 24]: 1.56 µg/mL (≈ 1.68 µM)
- MIC [10, 18]: 0.19 µg/mL (≈ 0.205 µM)
- MIC [11, 19]: 0.78 µg/mL (≈ 0.84 µM)
- MIC [12, 20]: 0.78 µg/mL (≈ 0.84 µM)
- MIC [13]: 1.56 µg/mL (≈ 1.68 µM)
- MIC [14, 21]: 0.19 µg/mL (≈ 0.205 µM)
- MIC [15, 22]: 0.19 µg/mL (≈ 0.205 µM)
- MIC (Sarcina lutea; [23]): 0.19 µg/mL (≈ 0.205 µM)
- Rate of the sacrificed mice (average) (mice): 0/3

Structure (SMILES): CCC(=O)OC1CC(=O)OC(C)CC=CC=CC(O)C(C)CC(CC=O)C(OC2OC(C)C(OC3CC(C)(O)C(OC(=O)CC)C(C)O3)C(N(C)C)C2O)C1OC (stereo not shown) [SF-837 (the free base), reference compound]
- MIC [1]: 0.04 µg/mL (≈ 0.0491 µM)
- MIC [2]: 0.78 µg/mL (≈ 0.958 µM)
- MIC [3]: 1.56 µg/mL (≈ 1.92 µM)
- MIC ([4]; Staphylococcus aureus, 24 h): 1.56 µg/mL (≈ 1.92 µM)
- MIC ([5]; Staphylococcus aureus, 24 h): 0.19 µg/mL (≈ 0.233 µM)
- MIC ([6]; Staphylococcus, 1200A, 24 h): 0.78 µg/mL (≈ 0.958 µM)
- MIC ([7]; ATCC8043, 24 h): 1.56 µg/mL (≈ 1.92 µM)
- MIC ([8]; 24 h): 0.09 µg/mL (≈ 0.111 µM)
- MIC [9, 24]: 0.09 µg/mL (≈ 0.111 µM)
- MIC ([10]; 24 h): 0.04 µg/mL (≈ 0.0491 µM)
- MIC ([11]; Bacillus subtilis, PCI219, 24 h): 0.78 µg/mL (≈ 0.958 µM)
- MIC ([12]; Bacillus subtilis, ATCC6633, 24 h): 1.56 µg/mL (≈ 1.92 µM)
- MIC [13]: 0.78 µg/mL (≈ 0.958 µM)
- MIC [14, 25]: 0.19 µg/mL (≈ 0.233 µM)
- MIC [15, 25]: 0.19 µg/mL (≈ 0.233 µM)
- MIC (Sarcina lutea; 24 h): 0.09 µg/mL (≈ 0.111 µM)
- Rate of the sacrificed mice (average) (mice): 3/3
- Rate of Surviving Mice (in percentage) (Staphylococcus aureus; 100 mg/kg): 0 percentage
- Rate of Surviving Mice (in percentage) (Staphylococcus aureus; 200 mg/kg): 45 percentage
- Rate of Surviving Mice (in percentage) (Staphylococcus aureus; 400 mg/kg): 67 percentage
